Drawing on PubChem BioAssay (NCI), this text covers GI50 and TGI for 13 molecules.

Test systems include SNB-19 CNS; U251 CNS; SK-OV-3 ovarian; MCF7 breast; SK-MEL-5 melanoma; MALME-3M melanoma; OVCAR-4 ovarian; M14 melanoma; SK-MEL-28 melanoma; K-562 leukemia.
Holding throughout (assay): NCI-60 cell line screen, 48 h

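The compound was tested at five concentrations on cells cultured in 96-well plates, with a 48-hour exposure period. At the GI50, growth is halved. At the TGI there is no net growth.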

For the molecule `Oc1ccccc1/C=N\Nc1ccccc1`, the GI50 in the test on SNB-19 CNS was 13.7 µM; in the test on U251 CNS, 10.2 µM; in the test with SK-OV-3 ovarian it was 70.4 µM; in the test with MCF7 breast it was 4.06 µM; with SK-MEL-5 melanoma, 3.59 µM; in the test on MALME-3M melanoma, 3.72 µM. For the same molecule, the GI50 in the test on OVCAR-4 ovarian was 24.8 µM; with M14 melanoma, 3.7 µM; in the test on SK-MEL-28 melanoma, 5.33 µM. Besides, the TGI with SNB-19 CNS was 95 µM; in the test on U251 CNS, 65.6 µM; with SK-OV-3 ovarian, more than 100 µM; in the test with MCF7 breast, more than 100 µM; in the test on SK-MEL-5 melanoma it was 19.8 µM; in the test on MALME-3M melanoma it was 21.7 µM. Moreover, the TGI with OVCAR-4 ovarian was more than 100 µM; with M14 melanoma, 19.4 µM; with SK-MEL-28 melanoma, more than 100 µM.
For the molecule `O=C1c2c(c3c4ccccc4n(CCCCCCN4CCOCC4)c3c3[nH]c4ccccc4c23)C(=O)N1O`, the GI50 is 10.4 µM in the test on SNB-19 CNS; 1.68 µM in the test with U251 CNS; 20.6 µM in the test with SK-OV-3 ovarian; 2.07 µM with MCF7 breast; 4.22 µM in the test on SK-MEL-5 melanoma; 1.74 µM with MALME-3M melanoma. The GI50 with OVCAR-4 ovarian is 4.44 µM; with M14 melanoma it was 4.02 µM; in the test on SK-MEL-28 melanoma, 1.96 µM. In addition, the TGI was more than 100 µM in the test on SNB-19 CNS; 3.22 µM in the test with U251 CNS; 43.2 µM in the test with SK-OV-3 ovarian; 7.73 µM in the test with MCF7 breast; 20 µM in the test on SK-MEL-5 melanoma; 3.76 µM with MALME-3M melanoma. Besides, the TGI with OVCAR-4 ovarian is 20.7 µM; in the test on M14 melanoma, 30.7 µM; with SK-MEL-28 melanoma it was 4.02 µM.
As for `CC1OC(OC2C(O)C(OCCc3ccc(O)c(O)c3)OC(CO)C2OC(=O)/C=C/c2ccc(O)c(O)c2)C(O)C(O)C1O` (configuration not stated), the GI50 in the test with SNB-19 CNS is more than 100 µM; in the test on K-562 leukemia, 15.5 µM; in the test with SK-OV-3 ovarian, more than 100 µM; in the test on MCF7 breast, 32.9 µM; with SK-MEL-5 melanoma, more than 100 µM; with OVCAR-4 ovarian, more than 100 µM. The GI50 is more than 100 µM with M14 melanoma and 52.7 µM in the test with SK-MEL-28 melanoma. Moreover, the TGI in the test with SNB-19 CNS, in the test on K-562 leukemia, with SK-OV-3 ovarian, in the test on MCF7 breast, with SK-MEL-5 melanoma and with OVCAR-4 ovarian was more than 100 µM each time. Moreover, the TGI with M14 melanoma and in the test on SK-MEL-28 melanoma was more than 100 µM throughout.
In the case of `O=C(CS(=O)c1nc2ccccc2nc1-c1ccccc1)Nc1ccc(Cl)cc1` (configuration not stated), the GI50 in the test on SNB-19 CNS is 38.4 µM; with U251 CNS, 21.8 µM; in the test with SK-OV-3 ovarian, 51.3 µM; with MCF7 breast, 38.7 µM; in the test with SK-MEL-5 melanoma it was 15.2 µM; in the test on MALME-3M melanoma, 19.1 µM. Moreover, the results for the GI50 in the test with OVCAR-4 ovarian, with M14 melanoma and in the test on SK-MEL-28 melanoma were 61.2 µM, 28.4 µM and 58.9 µM, respectively. Also, the TGI in the test on SNB-19 CNS is more than 100 µM; in the test on U251 CNS, 61.6 µM; in the test with SK-OV-3 ovarian it was more than 100 µM; in the test on MCF7 breast it was more than 100 µM; in the test with SK-MEL-5 melanoma, 30.8 µM; with MALME-3M melanoma, 46.7 µM. The TGI with OVCAR-4 ovarian, in the test on M14 melanoma and in the test with SK-MEL-28 melanoma was more than 100 µM throughout.
`CCN(CC)CCNc1ccc(N=Nc2cnc3ccccc3c2)c2ccccc12`: the GI50 in the test with SNB-19 CNS is 2.06 µM; in the test with K-562 leukemia, 1.03 µM; with U251 CNS, 1.7 µM; with SK-OV-3 ovarian it was 1.72 µM; in the test with MCF7 breast, 1.37 µM; with SK-MEL-5 melanoma it was 1.67 µM. For the same molecule, the GI50 is 1.85 µM with OVCAR-4 ovarian, 1.79 µM in the test on M14 melanoma and 1.79 µM in the test with SK-MEL-28 melanoma. The TGI was found to be 3.97 µM in the test with SNB-19 CNS; 2.3 µM with K-562 leukemia; 3.2 µM in the test on U251 CNS; 3.2 µM in the test on SK-OV-3 ovarian; 2.7 µM in the test with MCF7 breast; 3.03 µM with SK-MEL-5 melanoma. The TGI was determined as 3.88 µM in the test on OVCAR-4 ovarian, 3.29 µM in the test on M14 melanoma and 3.29 µM in the test on SK-MEL-28 melanoma.
Consider `Cc1nccc2c3ccc(OCc4cn(-c5ccc(Br)cc5)nn4)cc3n(CCCc3ccccc3)c12`, for which the GI50 in the test on SNB-19 CNS is 3.35 µM; with U251 CNS, 1.92 µM; in the test with SK-OV-3 ovarian, 31.2 µM; in the test with MCF7 breast, 3.09 µM; in the test on SK-MEL-5 melanoma it was 3.92 µM; in the test on MALME-3M melanoma, 1.62 µM. Besides, the GI50 in the test on M14 melanoma was 1.14 µM; with SK-MEL-28 melanoma, 1.72 µM. The TGI was more than 100 µM in the test on SNB-19 CNS; 3.79 µM with U251 CNS; more than 100 µM in the test on SK-OV-3 ovarian; more than 100 µM in the test on MCF7 breast; more than 100 µM in the test on SK-MEL-5 melanoma; 3.57 µM in the test on MALME-3M melanoma. Besides, the TGI in the test with M14 melanoma stood at 2.47 µM; in the test with SK-MEL-28 melanoma it was 3.45 µM.
In the case of `COc1cc2c(cc1OC)-c1c(c3ccc([N+](=O)[O-])cc3c(=O)n1CCCN=[N+]=[N-])C2=O`, the GI50 is more than 100 µM in the test with SNB-19 CNS; 19.6 µM in the test on K-562 leukemia; 11.6 µM in the test with U251 CNS; more than 100 µM in the test with SK-OV-3 ovarian; 0.556 µM with MCF7 breast; 42.6 µM with SK-MEL-5 melanoma. Moreover, the GI50 was more than 100 µM with OVCAR-4 ovarian, 20.3 µM in the test with M14 melanoma and more than 100 µM in the test with SK-MEL-28 melanoma. Besides, the TGI in the test on SNB-19 CNS, in the test on K-562 leukemia, in the test on U251 CNS, in the test on SK-OV-3 ovarian, in the test with MCF7 breast and in the test with SK-MEL-5 melanoma was more than 100 µM each time. Also, the figures for the TGI in the test on OVCAR-4 ovarian, with M14 melanoma and in the test on SK-MEL-28 melanoma were more than 100 µM, 67.3 µM and more than 100 µM, respectively.
Consider `CCOC(=O)Nc1cc2c(c(N)n1)N=C(c1ccccc1)CN2`, for which the GI50 in the test with SNB-19 CNS was less than 0.0001 µM; with SK-OV-3 ovarian it was 0.0207 µM; in the test with MCF7 breast, 0.0232 µM; in the test on SK-MEL-5 melanoma, less than 0.0001 µM; in the test on MALME-3M melanoma, less than 0.0001 µM; in the test with M14 melanoma, less than 0.0001 µM. Moreover, the TGI with SNB-19 CNS was more than 59.5 µM; with U251 CNS it was 1.42 µM; in the test with SK-OV-3 ovarian, 17.5 µM; in the test with MCF7 breast, 20.5 µM; in the test on SK-MEL-5 melanoma, less than 0.0001 µM; with MALME-3M melanoma it was 50.8 µM. Further, the TGI with OVCAR-4 ovarian was more than 100 µM; with M14 melanoma it was more than 49 µM; in the test with SK-MEL-28 melanoma it was 39.9 µM.
Consider `NS(=O)(=O)c1ccc(-n2nc(-c3ccccc3)cc2-c2cc(O)ccc2O)cc1`, for which the GI50 is more than 100 µM in the test on SNB-19 CNS; 40 µM in the test with K-562 leukemia; 46.4 µM in the test with U251 CNS; 69.4 µM in the test on MCF7 breast; more than 100 µM with SK-MEL-5 melanoma; 31.9 µM in the test on M14 melanoma. Moreover, the GI50 in the test on SK-MEL-28 melanoma was 94.3 µM. The TGI was more than 100 µM in the test on SNB-19 CNS; more than 100 µM in the test with K-562 leukemia; more than 100 µM with U251 CNS; more than 100 µM in the test on MCF7 breast; more than 100 µM in the test with SK-MEL-5 melanoma; 80.8 µM in the test on M14 melanoma. The same molecule returned a TGI with SK-MEL-28 melanoma of more than 100 µM.
Consider `CN(C)c1ccc2cc3c(cc2c1)Oc1ccccc1N3.[Cl][Zn][Cl]`, for which the GI50 in the test on SNB-19 CNS is 20.6 µM; in the test on K-562 leukemia, 3.05 µM; with SK-OV-3 ovarian, 17 µM; in the test with MCF7 breast, 1.53 µM; with SK-MEL-5 melanoma, 3.16 µM; in the test on MALME-3M melanoma it was 3.04 µM. Further, the values for the GI50 in the test with OVCAR-4 ovarian, in the test on M14 melanoma and with SK-MEL-28 melanoma were 2.75 µM, 4.73 µM and 2.5 µM, respectively. In addition, the TGI was 52.2 µM with SNB-19 CNS; more than 100 µM with K-562 leukemia; 33.3 µM in the test on SK-OV-3 ovarian; 3.91 µM in the test on MCF7 breast; 11.9 µM in the test with SK-MEL-5 melanoma; 9.6 µM with MALME-3M melanoma. The figures for the TGI with OVCAR-4 ovarian, with M14 melanoma and with SK-MEL-28 melanoma were 13.6 µM, 18 µM and 7.04 µM, respectively.
For the molecule `COc1ccccc1-c1ccc2c(N)c(C(=O)c3ccc4c(c3)OCO4)sc2n1`, the GI50 was 7.97 µM with SNB-19 CNS; 3.74 µM with K-562 leukemia; 5.97 µM in the test on SK-OV-3 ovarian; 4.82 µM in the test on MCF7 breast; 4.52 µM with SK-MEL-5 melanoma; 4.9 µM with MALME-3M melanoma. Besides, the GI50 is 4.21 µM with M14 melanoma and 5.03 µM with SK-MEL-28 melanoma. Besides, the TGI with SNB-19 CNS was 30.2 µM; in the test on K-562 leukemia, more than 100 µM; with SK-OV-3 ovarian it was 18.2 µM; with MCF7 breast, 98.6 µM; in the test on SK-MEL-5 melanoma, 24.2 µM; in the test with MALME-3M melanoma it was 16 µM. The results for the TGI in the test with M14 melanoma and in the test on SK-MEL-28 melanoma were 75 µM and 19.9 µM, respectively.
For the molecule `CCOP(=O)(OCC)C(NC(c1ccccc1)c1ccccc1)c1ccsc1` (configuration not stated), the GI50 was 14.9 µM in the test with K-562 leukemia, 24.2 µM with MCF7 breast, 18.4 µM in the test with SK-MEL-5 melanoma and 16.5 µM in the test on M14 melanoma. Moreover, the TGI in the test on K-562 leukemia is 56.5 µM; in the test with MCF7 breast it was more than 100 µM; in the test with SK-MEL-5 melanoma, 35.1 µM; with M14 melanoma, 30.5 µM.
As for `CSc1nc(SC)c2c(C)c(Br)[nH]c2n1`, the TGI with SNB-19 CNS, in the test with U251 CNS, in the test with SK-OV-3 ovarian, in the test on MCF7 breast, in the test with SK-MEL-5 melanoma and in the test with MALME-3M melanoma was more than 100 µM in each case. Also, the TGI in the test on OVCAR-4 ovarian, with M14 melanoma and in the test on SK-MEL-28 melanoma was more than 100 µM throughout.
